Experimental data: patent publication US8846639B2, “Oligomeric compounds comprising bicyclic nucleosides and having reduced toxicity” (Isis Pharmaceutical, Inc., priority 2008, dated 2014)

Experiments:
[1] = tested on: complementary RNA; experiment: Tm of modified oligomers with complementary RNA; type: binding; details: 100 mM phosphate buffer, 0.1 mM EDTA, pH 7, 260 nm, 4 μM oligomer and 4 μM complementary RNA
Method: (§1) Each dose group consisted of four animals. The mice were sacrificed 72 hours following the final administration to determine the PTEN mRNA levels in liver using real-time PCR and RIBOGREEN® RNA quantification reagent (Molecular Probes, Inc. Eugene, Oreg.) according to standard protocols. PTEN mRNA levels were determined relative to total RNA (using Ribogreen), prior to normalization to saline-treated control. Results are listed below as the average % inhibition of mRNA expression for each treatment group, normalized to saline-injected control. Resulting dose-response curves were used to determine the IC50. Tm's were assessed in 100 mM phosphate buffer, 0.1 mM EDTA, pH 7, at 260 nm using 4 μM modified oligomers and 4 μM complementary RNA.

[2] = tested on: PTEN mRNA; experiment: PTEN mRNA levels in liver, real-time PCR (Example 13 in vivo study); details: Balb/c mice, 72 h, normalized to saline control
Method: (§2) In accordance with the present invention, oligomeric compounds were synthesized and tested for their ability to reduce PTEN expression in vivo at doses of 20 and 60 mg/kg. Six week old male Balb/c mice (Jackson Laboratory, Bar Harbor, Me.) were administered a single intraperitoneal (i.p) injection at either 20 or 60 mg/kg of 4′-CH2—O-2′ BNA 2-10-2 gapped oligomers ([…] and 392745). The 4′-CH2—O-2′ BNA gapped oligomer, 392745, contains non-methylated pyrimidine in the wings. The 4′-CH2—O-2′ BNA gapped oligomer, 392063, contains methylated pyrimidine in the wings (i.e. each cytosine residues in the 4′-CH2—O-2′ BNA wings of 392745 are replaced with 5-methylcytosines, while the thymidine residues in the 4′-CH2—O-2′ BNA wings of 392745 are replaced with 5-methyl thymidines). All internucleoside linkages are phosphorothioates, nucleosides not followed by a subscript are βD-2′-deoxyribonucleosides, nucleosides followed by a subscript 1 are 4′-CH2—O-2′ modified bicyclic nucleosides and ^MeC indicates a 5′-methyl cytosine nucleoside.
as §1

[3] = tested on: PTEN mRNA; experiment: PTEN mRNA levels in liver, real-time PCR (Example 14 in vivo study); set-up: species or system mice; details: for PTEN mRNA levels (% inhibition): liver, 72 h; for ED50: estimated, Graphpad Prism, dose at which 50% mRNA reduction is observed
Method: (§3) Six week old male Balb/c mice (Jackson Laboratory, Bar Harbor, Me.) were administered a single intraperitoneal (i.p) injection with 4′-CH2—O-2′ BNA containing oligomers (392745 and 392063) and 6(S)-4′-CH(CH3)—O-2′ BNA containing oligomers (392749 and 411847) at a does of 3.2, 10, 32, 66 and 100 mg/kg. Oligomers 392063 and 411847 contain LNA nucleosides with methylated pyrimidines, and oligomers 392745 and 392749 contain LNA nucleosides with non-methylated pyrimidines in the wings. All intemucleoside linkages are phosphorothioates, nucleosides not followed by a subscript are βD-2′-deoxyribonucleosides, nucleosides followed by a subscript 1 are 4′-CH2—O-2′ modified bicyclic nucleosides, nucleosides followed by a subscript S are 6(S)-4′-CH(CH3)—O-2′ modified bicyclic nucleosides wherein S indicates the configuration at the 6 carbon atom and ^MeC indicates a 5′-methyl cytosine nucleoside.
as §1, with “control.” for “control. Resulting dose-response curves were used to determine the IC50. Tm's were assessed in 100 mM phosphate buffer, 0.1 mM EDTA, pH 7, at 260 nm using 4 μM modified oligomers and 4 μM complementary RNA.”
Estimated ED50 concentrations for each oligomers were calculated using Graphpad Prism. ED50 is the dose at which 50% mRNA reducation is observed.

[4] = Liver, kidney, spleen weights and body weight gain (Example 13); type: in vivo, mice; details: for Kidney weight / Liver weight / Spleen weight: saline = 1.00; for Body weight gain: saline = 1.05; for liver, kidney, spleen weights or body weight gain compared to saline: normal mice, 20 and 60 mg/kg
Method: as §2
The effects on liver, kidney, spleen weights and body weight gain were also determined.

[5] = Liver transaminase (ALT) levels in serum (Example 14); type: in vivo, mice
Method: as §3
(§4) Liver transaminase levels, alanine aminotranferease (ALT) and aspartate aminotransferase (AST), in serum were also measured relative to saline injected mice. Increases in the transaminase levels can indicate hepatotoxicity. The approximate liver transaminase levels are listed below.

[6] = Liver transaminase levels (ALT, AST) in serum (Example 13); type: in vivo, mice; details: for transaminase levels with respect to saline treated control: 20 mg/kg; for ALT / AST: serum; for ALT: saline = 24; for AST: saline = 68
Method: as §2
as §4, with “hepatotoxicity. […] The ALT and AST levels measured for mice treated with 60 mg/kg does of 392745 were decreased about 4.5-fold and 3 fold as compared to 392063 treatment.” for “hepatotoxicity.”

Row | Substance | Tm [1] | % inhibition (PTEN mRNA expression in liver) ([2]; 20 mg/kg single i.p.) | % inhibition (PTEN mRNA expression in liver) ([2]; 60 mg/kg single i.p.) | PTEN mRNA levels (% inhibition) ([3]; 3.2 mg/kg single i.p.) | PTEN mRNA levels (% inhibition) ([3]; 10 mg/kg single i.p.) | PTEN mRNA levels (% inhibition) ([3]; 32 mg/kg single i.p.) | PTEN mRNA levels (% inhibition) ([3]; 66 mg/kg single i.p.) | PTEN mRNA levels (% inhibition) ([3]; 100 mg/kg single i.p.) | ED50 [3] | Kidney weight ([4]; 20 mg/kg) | Liver weight ([4]; 20 mg/kg) | Spleen weight ([4]; 20 mg/kg) | Body weight gain ([4]; 20 mg/kg) | Kidney weight ([4]; 60 mg/kg) | Liver weight ([4]; 60 mg/kg) | Spleen weight ([4]; 60 mg/kg) | Body weight gain ([4]; 60 mg/kg) | liver, kidney, spleen weights or body weight gain compared to saline [4] | ALT levels ([5]; 3.2 mg/kg, serum, saline = 24) | ALT levels ([5]; 10 mg/kg, serum, saline = 24) | also measured
1 | ^MeC1T1TAGCACTGGC^MeC1T1 [ISIS 392063] | 60.5 °C | 86% | 92% | 0% | 68% | 88% | 90% | 91% | 8 mg/kg | 1.02 | 1.22 | 0.99 | 1.05 | 1.00 | 1.29 | 1.11 | 0.99 | did not substantially alter | 20 IU/L | 17 IU/L | ALT levels ([5]; 32 mg/kg, serum, saline = 24): 20 IU/L; ALT levels ([5]; 66 mg/kg, serum, saline = 24): 4292 IU/L; ALT levels ([5]; 100 mg/kg, serum, saline = 24): 13811 IU/L; ALT levels ([5]; higher doses (66 mg/kg and 100 mg/kg)): substantially increased; transaminase levels with respect to saline treated control [6]: not elevated to a level indicative of hepatotoxicity; ALT ([6]; 20 mg/kg single i.p.): 28 IU/L; AST ([6]; 20 mg/kg single i.p.): 56 IU/L; ALT and AST levels ([6]; 60 mg/kg): substantially increased; ALT ([6]; 60 mg/kg single i.p.): 489 IU/L; AST ([6]; 60 mg/kg single i.p.): 598 IU/L
2 | C1U1TAGCACTGGCC1U1 [ISIS 392745] | 58.6 °C | 89% | 92% | 0% | 58% | 90% | 90% | 93% | 9 mg/kg | 1.02 | 1.22 | 1.14 | 1.06 | 1.02 | 1.25 | 1.12 | 1.01 | did not substantially alter | 30 IU/L | 20 IU/L | ALT levels ([5]; 32 mg/kg, serum, saline = 24): 13 IU/L; ALT levels ([5]; 66 mg/kg, serum, saline = 24): 59 IU/L; ALT level decrease as compared to 392063 treatment ([5]; 100 mg/kg): about 3.5 fold; ALT levels ([5]; 100 mg/kg, serum, saline = 24): 3842 IU/L; ALT levels with respect to saline treated control ([5]; lower doses (3.2, 10, 32 and 66 mg/kg)): not elevated to a level indicative of hepatotoxicity; transaminase levels with respect to saline treated control [6]: not elevated to a level indicative of hepatotoxicity; ALT ([6]; 20 mg/kg single i.p.): 29 IU/L; AST ([6]; 20 mg/kg single i.p.): 81 IU/L; ALT level decrease as compared to 392063 treatment ([6]; 60 mg/kg): about 4.5 fold; AST level decrease as compared to 392063 treatment ([6]; 60 mg/kg): ~3 fold; ALT ([6]; 60 mg/kg single i.p.): 108 IU/L; AST ([6]; 60 mg/kg single i.p.): 202 IU/L
